Converted amounts (≈) assume the structure as drawn.
Legend:
[1] = physchem; conditions: organic solvent or mixture, thermodynamic from solid, Solubility In DMI (mg/ml)
[2] = solvent dimethyl isosorbide (DMI); dissolved with gentle heating as needed

SMILES | solubility [1] | also measured
CC[C@@]1(O)C(=O)OCc2c1cc1n(c2=O)Cc2cc3ccccc3nc2-1 [Campothecin] | – | solubility ([1]; solvent dimethyl isosorbide (DMI), dissolved with gentle heating as needed): < 1 mg/mL
CCC(C)n1ncn(-c2ccc(N3CCN(c4ccc(OCC5COC(Cn6cncn6)(c6ccc(Cl)cc6Cl)O5)cc4)CC3)cc2)c1=O (centres unmarked) [Itraconazole] | 9.6 mg/mL (≈ 13.6 mM) | –
CC(C)c1cccc(C(C)C)c1O [Propofol] | – | Solubility In DMI (mg/ml) [2]: completely
CCc1c2c(nc3ccc(O)cc13)-c1cc3c(c(=O)n1C2)COC(=O)[C@]3(O)CC [SN-38] | – | Solubility In DMI [2]: <1 mg/mL
CC(=O)O[C@@]12CO[C@@H]1C[C@H](O)[C@@]1(C)C(=O)[C@H](O)C3=C(C)[C@@H](OC(=O)[C@H](O)[C@@H](NC(=O)OC(C)(C)C)c4ccccc4)C[C@@](O)([C@@H](OC(=O)c4ccccc4)[C@H]21)C3(C)C [Docetaxel] | 90 mg/mL (≈ 111 mM) | –

Continued, in another order:

solubility [1] | SMILES | also measured
121 mg/mL (≈ 132 mM) | CO[C@H]1C[C@@H]2CC[C@@H](C)[C@@](O)(O2)C(=O)C(=O)N2CCCC[C@H]2C(=O)O[C@H]([C@H](C)C[C@@H]2CC[C@@H](O)[C@H](OC)C2)CC(=O)[C@H](C)/C=C(\C)[C@@H](O)[C@@H](OC)C(=O)[C@H](C)C[C@H](C)/C=C/C=C/C=C/1C [Rapamycin] | –
192 mg/mL (≈ 827 mM) | COc1ccc2[nH]cc(CCNC(C)=O)c2c1 [Melatonin] | –
17.4 mg/mL (≈ 50.4 mM) | COc1ccc2[nH]c([S+]([O-])Cc3ncc(C)c(OC)c3C)nc2c1 (centres unmarked) [Omeprazole] | –
